# Patent publication US7705156B2, “Heteroaryl (substituted)alkyl N-substituted sulfoximines as insecticides” (Dow AgroSciences LLC, priority 2006, dated 2010)
# Read-outs that look alike come from different tables or passages of the source.
# How the values were obtained:
# [1] = tested on: Cotton Aphid (Aphis gossvpii); assay: Insecticidal test for cotton aphid in foliar spray assay; assay type: in vivo; details: for pest or weed control at 50 ppm / pest or weed control at 200 ppm: 72 h; for pest or weed control at 50 ppm: read-out: CA 50: % control at 50 ppm against cotton aphid in foliar spray tests; for pest or weed control at 200 ppm: read-out: CA 200: % control at 200 ppm against cotton aphid in foliar spray tests; for % Control at ppm against cotton aphid on squash, foliar spray, 0.781 ppm / % Control at ppm against cotton aphid on squash, foliar spray, 3.125 ppm / % Control at ppm against cotton aphid on squash, foliar spray, 12.5 ppm / % Control at ppm against cotton aphid on squash, foliar spray, 50 ppm: rundown assay
# Experimental: Insecticidal Test for Cotton Aphid (Aphis gossvpii) in Foliar Spray Assay
# Squash with fully expanded cotyledon leaves were trimmed to one cotyledon per plant and infested with cotton aphid (wingless adult and nymph) 1 day prior to chemical application. Each plant was examined before chemical application to ensure proper infestation (ca. 30-70 aphids per plant). Compounds (2 mg) were dissolved in 2 ml of acetone:methanol (1:1) solvent, forming stock solutions of 1000 ppm. The stock solutions were diluted 5× with 0.025% Tween 20 in H2O to obtain the highest test solution at 200 ppm. Lower test concentrations (50, 12.5, 3.13 and 0.78 ppm) were prepared by making sequential 4× dilutions from the 200 ppm solution with a diluent consisting 80 parts of 0.025% Tween 20 in H2O and 20 parts of acetone:methanol (1:1). A hand-held Devilbiss sprayer was used to apply the spray solutions until runoff to both sides of the squash cotyledon leaves. Four plants (4 replications) were used for each concentration of each compound. Reference plants (solvent check) were sprayed with the diluent only. Treated plants were held in a holding room for 3 days at approximately 23° C. and 40% RH before the number of live aphids on each plant was recorded. Insecticidal activity was measured by Corrected % Control using Abbott's correction formula and the values for the lower test concentrations are presented in Table 2: Corrected % Control=100*(X−Y)/X • where X=No. of live aphids on solvent check plants • Y=No. of live aphids on treated plants Insecticidal Test for Green Peach Aphid (Myzus persicae) in Foliar Spray Assay
# [2] = tested on: Green Peach Aphid (Myzus persicae); assay: Insecticidal test for green peach aphid in foliar spray assay; assay type: in vivo; details: 72 h, foliar spray on cabbage seedlings, 3 days, Abbott-corrected; for pest or weed control at 200 ppm: read-out: GPA 200: % control at 200 ppm against green peach aphid in foliar spray tests; for pest or weed control at 50 ppm: read-out: GPA 50: % control at 50 ppm against green peach aphid in foliar spray tests
# Experimental: Cabbage seedlings grown in 3-inch pots, with 2-3 small (3-5 cm) true leaves, were used as test substrate. The seedlings were infested with 20-50 green peach aphids (wingless adult and nymph) 2-3 days prior to chemical application. Four seedlings were used for each treatment. Compounds (2 mg) were dissolved in 2 ml of acetone:methanol (1:1) solvent, forming stock solutions of 1000 ppm. The stock solutions were diluted 5× with 0.025% Tween 20 in H2O to obtain the highest test solution at 200 ppm. A lower test concentration of 50 ppm was prepared by making a 4× dilution from the 200 ppm solution with a diluent consisting 80 parts of 0.025% Tween 20 in H2O and 20 parts of acetone: methanol (1:1). A hand-held Devilbiss sprayer was used for spraying a solution to both sides of cabbage leaves until runoff. Reference plants (solvent check) were sprayed with the diluent only. Treated plants were held in a holding room for three days at approximately 23° C. and 40% RH prior to grading. Evaluation was conducted by counting the number of live aphids per plant under a microscope. Insecticidal activity was measured by using Abbott's correction formula: Corrected % Control=100*(X−Y)/X • where X=No. of live aphids on solvent check plants • Y=No. of live aphids on treated plants The Corrected % Control values from the above assays are given in Table 2
# [3] = 50 ppm, foliar spray on squash, 3 days, Abbott-corrected
# [4] = 200 ppm, foliar spray on squash, 3 days, Abbott-corrected
SMILES,"pest or weed control at 50 ppm [1, 3]","pest or weed control at 200 ppm [1, 4]",pest or weed control at 200 ppm [2],"% Control at ppm against cotton aphid on squash, foliar spray, 0.781 ppm [1]","% Control at ppm against cotton aphid on squash, foliar spray, 3.125 ppm [1]","% Control at ppm against cotton aphid on squash, foliar spray, 12.5 ppm [1]","% Control at ppm against cotton aphid on squash, foliar spray, 50 ppm ([1]; 50 ppm)",pest or weed control at 50 ppm [2],pest or weed control at 50 ppm ([1]; foliar),pest or weed control at 200 ppm ([1]; foliar)
COCCC(c1ccc(Cl)nc1)S(C)(=O)=NC#N (stereo not shown) [Compound 10],90 to 100%,90 to 100%,60 to 69%,–,–,–,–,–,–,–
CS(=O)(=NC#N)C(C/C=C/Cl)c1ccc(C(F)(F)F)nc1 (stereo not shown) [Compound 17],90 to 100%,90 to 100%,90 to 100%,D (60-69),B (80-89),A (90-100),A (90-100),70 to 79%,–,–
"CS(=O)(=NC#N)[C@@H]1CCC[C@@H]1c1ccc(Cl)nc1 (stereo partly drawn) [Compound 3, cis-[2-(6-chloropyridin-3-yl)cyclopentyl](methyl)-oxido-λ^4-sulfanylidenecyanamide]",–,60 to 69%,60 to 69%,–,–,–,–,–,–,–
"N#CN=S1(=O)CCC(c2ccc(C(F)(F)F)nc2)C1 (stereo not shown) [Compound 5, 1-oxido-3-[6-(trifluoromethyl)pyridin-3-yl]tetrahydro-1H-1λ^4-thien-1-ylidenecyanamide]",90 to 100%,90 to 100%,80 to 89%,F (Less than 50),C (70-79),A (90-100),A (90-100),50 to 59%,–,–
CS(=O)(=NC#N)C(Cc1ccc(Cl)nc1)c1ccc(Cl)nc1 (stereo not shown) [Compound 6],90 to 100%,90 to 100%,–,–,–,–,–,–,–,–
"CS(=O)(=NC#N)C1CCC(c2ccc(Cl)nc2)C1 (stereo not drawn) [Compound 4, cis and trans-[3-(6-chloropyridin-3-yl)cyclopentyl]-(methyl)oxido-λ^4-sulfanylidenecyanamide]",70 to 79%,90 to 100%,80 to 89%,–,–,–,–,–,–,–
"CS(=O)(=NC#N)C(Cc1cscn1)c1ccc(Cl)nc1 (stereo not shown) [Compound 1, [1-(6-chloropyridin-3-yl)-2-(1,3-thiazol-4-yl)ethyl](methyl)oxido-λ^4-sulfanylidenecyanamide]",–,–,–,–,–,–,–,–,90 to 100%,90 to 100%
COc1ccc(CC(c2ccc(Cl)nc2)S(C)(=O)=NC#N)cc1 (stereo not shown) [Compound 8],90 to 100%,90 to 100%,–,–,–,–,–,–,–,–
CS(=O)(=NC#N)C(CC1CC1)c1ccc(Cl)nc1 (stereo not shown) [Compound 13],90 to 100%,90 to 100%,–,–,–,–,–,–,–,–
C#CCC(c1ccc(C(F)(F)F)nc1)S(C)(=O)=NC#N (stereo not shown) [Compound 16],90 to 100%,90 to 100%,90 to 100%,B (80-89),A (90-100),A (90-100),A (90-100),80 to 89%,–,–
COCC(COC)(c1ccc(Cl)nc1)S(C)(=O)=NC#N (stereo not shown) [Compound 11],90 to 100%,90 to 100%,–,–,–,–,–,–,–,–
CS(=O)(=NC#N)C(CCF)c1ccc(Cl)nc1 (stereo not shown) [Compound 12],90 to 100%,90 to 100%,90 to 100%,A (90-100),A (90-100),A (90-100),A (90-100),90 to 100%,–,–
"CS(=O)(=NC#N)C(CC1CC1)c1ccc(C(F)(F)F)nc1 (stereo not shown) [Compound 2, {1-[6-(trifluoromethyl)pyridin-3-yl]-2-(cyclopropyl)ethyl}(methyl)oxido-λ^4-sulfanylidenecyanamide]",90 to 100%,90 to 100%,70 to 79%,C (70-79),A (90-100),A (90-100),A (90-100),–,–,–
C#CCC(c1ccc(Cl)nc1)S(C)(=O)=NC#N (stereo not shown) [Compound 14],90 to 100%,90 to 100%,–,–,–,–,–,–,–,–
CS(=O)(=NC#N)C(Cc1ccc(Cl)cc1)c1ccc(Cl)nc1 (stereo not shown) [Compound 7],90 to 100%,90 to 100%,–,–,–,–,–,–,–,–
CS(=O)(=NC#N)C(C/C=C/Cl)c1ccc(Cl)nc1 (stereo not shown) [Compound 15],90 to 100%,90 to 100%,–,–,–,–,–,–,–,–
CC(C)C(c1ccc(Cl)nc1)S(C)(=O)=NC#N (stereo not shown) [Compound 9],90 to 100%,90 to 100%,–,–,–,–,–,–,–,–
CC(C)C(c1ccc(C(F)(F)F)nc1)S(C)(=O)=NC#N (stereo not shown) [Compound 18],90 to 100%,90 to 100%,90 to 100%,A (90-100),A (90-100),A (90-100),A (90-100),60 to 69%,–,–
